Laboratory results reported in US20040186066A1, “Method of treatment with nelfinavir” (AGOURON PHARMACEUTICALS, INC., priority 2003, published 2004).
Structures can show the parent of a compound that is named as a salt. Where two headings read alike, the source gives them in different places.

Legend:
[1] = Example 2: phase 1 crossover 3×3 study, fixed kilocalorie meal at 20% and 50% fat, single-dose pharmacokinetics of nelfinavir 250 mg tablets; assay type: in vivo, human (normal, healthy volunteers); conditions: for AUC / AUC(0-inf) / Cmax / AUC(0-t) / half-life / Tmax: human, plasma, oral, 1250 mg; for AUC: read-out: Nelfinavir AUC24; for AUC(0-t): read-out: AUC(0-tlqc), least-squares mean
Experimental: A study was conducted as a phase 1, randomized, open-label, crossover 3×3 study, designed to evaluate the impact of a fixed kilocalorie meal at 20% and 50% fat content on single-dose pharmacokinetic parameters of the nelfinavir 250 mg tablet formulation in normal, healthy volunteers. Subjects were dosed with 1250 mg of nelfinavir 3 times at one-week intervals and 24-hour PK profiles were collected following each of the doses. Each subject was assigned three meals with different fat contents prior to dosing (fasting, 500kcal with 20% fat, 500 kcal with 50% fat) using a Latin square design. Twenty-four subjects entered the study and twenty-two subjects completed it. Each subject received the following treatment in random order on Days 1, 8 and 15: 5×250 mg nelfinavir tablets with fasting; 5×250 mg nelfinavir tablets, with a meal comprising 500Kcal/20% fat; and 5×250 mg nelfinavir tablets with a meal having 500 Kcal/50% fat. The moderate calorie/low fat meal consisted of 500 Kcal with 20% fat (11.3 grams of fat). The moderate calorie/high fat meal consisted of 500 Kcal with 50% fat (27.8 grams of fat). Subjects were administered nelfinavir 1250-mg (five 250-mg tablets) on the morning of the pharmacokinetic evaluations. The nelfinavir terminal half-life (t½) in plasma is typically 3.5 to 5 hours. […] Subjects participated on an outpatient basis; however, subjects were admitted to the in-patient facility the evening prior to each PK evaluation and remained in the in-patient facility for approximately 16 hours post-dosing. The subjects returned the next morning (8 hours later) for their last 24 hr. pharmacokinetic blood draw. All pharmacokinetic evaluations were performed in the in-patient facility. Blood samples were collected and analyzed for plasma concentrations of nelfinavir and M8. For the fasting evaluation, subjects were required to complete an overnight fast of at least 10 hours prior to dosing in the morning. For the fed PK evaluations, subjects were required to complete an overnight fast of at least 10 hours, prior to receiving the protocol-specific standardized breakfast meal. Subjects were given 30 minutes to complete their standardized breakfast meal. Dosing was performed in the morning, immediately following the subject's completion of the standardized breakfast meal and after the subject's predose PK specimen had been collected. Subjects could not ingest water 1 hour prior to or 1 hour after dosing. A standardized lunch was given at least 4 hours after the morning dose and a standardized dinner was given at least 10 hours after the morning dose. Actual sampling times were used for all data evaluation. Mean Cmax and AUC values were calculated as the antilogs of least-squares mean log-transformed values (analogous to geometric means). Ratios and confidence intervals for Cmax and AUC values are also based on log-transformed values. Mean values for all other pharmacokinetic parameters are least-squares means. Ratios and confidence intervals for these parameters are based on untransformed values. Blood samples, 5 mL each, were collected as in Example 1. The timing of each sample collection was as follows: Predose and at 0.5, 1, 2, 3, 4, 6, 8, 12, 16 and 24 hours postdose on Days 1, 8, and 15. All blood samples were kept at […] (using either wet ice or cryoblock) until centrifugation. Blood samples were centrifuged within 1 hour of collection, at 3000 rpm (approximately 2619×g) for 15 minutes, to separate the plasma. The plasma samples were split evenly into 2 aliquots and stored in appropriately labeled polypropylene transport tubes. Plasma was stored frozen at […] or lower until analysis. Pharmacokinetic parameter values were calculated from plasma nelfinavir and M8 concentration-time data using standard noncompartmental pharmacokinetic methods as in Example 1. Plasma concentrations of nelfinavir and M8 were measured by validated high-performance liquid chromatography (HPLC) methods. […]

[2] = nelfinavir and nelfinavir plus M8; full breakfast 610 kcal vs light breakfast 271 kcal; once-daily with low-dose ritonavir; cited from earlier work
[3] = meals 517 to 759 Kcal, 153 to 313 Kcal from fat; cited from earlier work
[4] = Kcal/Fat % 500/20% relative to fasting
[5] = Kcal/Fat % 500/50% relative to fasting
[6] = nelfinavir, moderate calorie/high fat meal (500 Kcal/50% fat) vs fasting
[7] = nelfinavir, moderate calorie/low fat meal (500 Kcal/20% fat) vs fasting

Cc1c(O)cccc1C(=O)N[C@@H](CSc1ccccc1)[C@H](O)CN1C[C@H]2CCCC[C@H]2C[C@H]1C(=O)NC(C)(C)C (relative stereo) [nelfinavir, [3S-(3R*, 4aR*, 8aR*, 2′S*, 3′S*)]-2-[2′ hydroxy-3′-phenylthiomethyl-4′-aza-5′-oxo-5′-(2″-methyl-3″-hydroxy-phenyl)pentyl]-decahydroiso-quinoline-3-N-t-butylcarboxamide methanesulfonic acid salt]
Nelfinavir AUC24 (×fasting) [1, 4]: 3.2 X | Nelfinavir AUC∞ (×fasting) [1, 4]: 3.0 X | Nelfinavir Cmax (×fasting) [1, 4]: 2.5 X | Nelfinavir AUC24 (×fasting) [1, 5]: 5.2 X | Nelfinavir AUC∞ (×fasting) [1, 5]: 5.1 X | Nelfinavir Cmax (×fasting) [1, 5]: 3.8 X | AUC ([1]; 1250 mg single dose, fasting): 10000 ng·h/mL | AUC(0-inf) ([1]; 1250 mg single dose, fasting, read-out: Nelfinavir AUC∞): 10700 ng·h/mL | Cmax ([1]; 1250 mg single dose, fasting, read-out: Nelfinavir Cmax): 1630 ng/mL | AUC ([1]; Kcal/Fat % 500/20%): 32600 ng·h/mL | AUC(0-inf) ([1]; Kcal/Fat % 500/20%, read-out: Nelfinavir AUC∞): 32700 ng·h/mL | Cmax ([1]; Kcal/Fat % 500/20%, read-out: Nelfinavir Cmax): 4000 ng/mL | AUC ([1]; Kcal/Fat % 500/50%): 52600 ng·h/mL | AUC(0-inf) ([1]; Kcal/Fat % 500/50%, read-out: Nelfinavir AUC∞): 54600 ng·h/mL | Cmax ([1]; Kcal/Fat % 500/50%, read-out: Nelfinavir Cmax): 6200 ng/mL | AUC(0-t) ([1]; nelfinavir, 5×250-mg tablets during moderate calorie/high fat meal (500 Kcal/50% fat)): 52600 ng·h/mL | AUC(0-inf) ([1]; nelfinavir, 5×250-mg tablets during moderate calorie/high fat meal (500 Kcal/50% fat), read-out: AUC(0-∞), least-squares mean): 54600 ng·h/mL | Cmax ([1]; nelfinavir, 5×250-mg tablets during moderate calorie/high fat meal (500 Kcal/50% fat), read-out: Cmax, least-squares mean): 6160 ng/mL | half-life ([1]; nelfinavir, 5×250-mg tablets during moderate calorie/high fat meal (500 Kcal/50% fat), read-out: t1/2 (terminal half-life), least-squares mean (converted)): 3.43 h | Tmax ([1]; nelfinavir, 5×250-mg tablets during moderate calorie/high fat meal (500 Kcal/50% fat), read-out: tmax, least-squares mean): 4.48 h | AUC(0-t) ([1]; nelfinavir, 5×250-mg tablets during moderate calorie/low fat meal (500 Kcal/20% fat)): 32600 ng·h/mL | AUC(0-inf) ([1]; nelfinavir, 5×250-mg tablets during moderate calorie/low fat meal (500 Kcal/20% fat), read-out: AUC(0-∞), least-squares mean): 32700 ng·h/mL | Cmax ([1]; nelfinavir, 5×250-mg tablets during moderate calorie/low fat meal (500 Kcal/20% fat), read-out: Cmax, least-squares mean): 4040 ng/mL | half-life ([1]; nelfinavir, 5×250-mg tablets during moderate calorie/low fat meal (500 Kcal/20% fat), read-out: t1/2 (terminal half-life), least-squares mean (converted)): 3.08 h | Tmax ([1]; nelfinavir, 5×250-mg tablets during moderate calorie/low fat meal (500 Kcal/20% fat), read-out: tmax, least-squares mean): 4.19 h | AUC(0-t) ([1]; nelfinavir, 5×250-mg tablets single dose, fasting (reference)): 10000 ng·h/mL | AUC(0-inf) ([1]; nelfinavir, 5×250-mg tablets single dose, fasting (reference), read-out: AUC(0-∞), least-squares mean): 10700 ng·h/mL | Cmax ([1]; nelfinavir, 5×250-mg tablets single dose, fasting (reference), read-out: Cmax, least-squares mean): 1630 ng/mL | half-life ([1]; nelfinavir, 5×250-mg tablets single dose, fasting (reference), read-out: t1/2 (terminal half-life), least-squares mean (converted)): 4.1 h | Tmax ([1]; nelfinavir, 5×250-mg tablets single dose, fasting (reference), read-out: tmax, least-squares mean): 2.42 h | half-life ([1]; nelfinavir, fasting subjects and test meals, similar, read-out: elimination t½, average (converted)): ~4 h | Tmax ([1]; nelfinavir, meal of 20% fat content (500 kcal), read-out: mean tmax longer relative to fasting subjects): ~2 h | Tmax ([1]; nelfinavir, meal of 50% fat content (500 kcal), read-out: mean tmax longer relative to fasting subjects): ~2 h | AUC increase compared to the fasting AUC ([1]; nelfinavir, 500 Kcal, 50% fat breakfast): 5.2 fold | AUC increase compared to the fasting AUC ([1]; nelfinavir, 500 kcal, 20% fat breakfast): 3.2 fold | % coefficient of variation (CV) for AUC(0-∞) ([1]; nelfinavir, fasting subjects): 75% | bioavailability higher relative to fasting subjects, based on AUC(0-∞) ([1]; nelfinavir, meal containing 20% fat (500 kcal)): approximately 3 fold | bioavailability higher relative to fasting subjects, based on AUC(0-∞) ([1]; nelfinavir, meal containing 50% fat (500 kcal)): ~5 fold | mean Cmax higher relative to fasting ([1]; nelfinavir, meal of 20% fat content (500 kcal)): approximately 2.5 fold | mean Cmax higher relative to fasting ([1]; nelfinavir, meal of 50% fat content (500 kcal)): ~3.8 fold | AUC(0-tlqc) ratio (100% × test/reference) [1, 6]: 524% | AUC(0-∞) ratio (100% × test/reference) [1, 6]: 508% | Cmax ratio (100% × test/reference) [1, 6]: 378% | t1/2 ratio (100% × test/reference) [1, 6]: 83.7% | tmax ratio (100% × test/reference) [1, 6]: 186% | AUC(0-tlqc) ratio (100% × test/reference) [1, 7]: 325% | AUC(0-∞) ratio (100% × test/reference) [1, 7]: 305% | Cmax ratio (100% × test/reference) [1, 7]: 248% | t1/2 ratio (100% × test/reference) [1, 7]: 75.0% | tmax ratio (100% × test/reference) [1, 7]: 173% | % coefficient of variation (CV) for AUC(0-∞) ([1]; nelfinavir, test meal containing 20% fat): 48% | % coefficient of variation (CV) for AUC(0-∞) ([1]; nelfinavir, test meal containing 50% fat): 43% | effect of meal consumption on AUC24h, corr and Cmin [2]: significant effect | AUC, fed compared to fasting [3]: two to three-fold higher | maximum plasma concentrations, fed compared to fasting [3]: two to three-fold higher
